From the supplement of paper PMC13380429

Legend:
[1] = tested on: A549-ACE2 infected with SARS-CoV-2; assay: SARS-CoV-2 infection rate relative to DMSO; higher = more infection; conditions: 24 h
[2] = tested on: A549-ACE2; assay: phospholipidosis EC50; higher = less potent phospholipidosis inducer
[3] = tested on: HepG2; assay: drug sensitivity score (DSS) for viability; higher = more toxic; extreme values may be limits of the assay; conditions: 72 h
[4] = tested on: Vero E6; assay: as above; conditions: 72 h
[5] = tested on: Caco-2; assay: as above; conditions: 72 h
[6] = tested on: U2OS; assay: as above; conditions: 72 h
[7] = tested on: Calu-3; assay: as above; conditions: 72 h
[8] = tested on: A549-ACE2 infected with SARS-CoV-2; assay: morphology score (similarity to uninfected cells); higher = more like uninfected cells; conditions: 24 h
[9] = tested on: A549-ACE2; assay: drug-induced phospholipidosis relative to tamoxifen; higher = more phospholipidosis
[10] = tested on: A549-ACE2 infected with SARS-CoV-2; assay: cell count relative to DMSO; higher = less toxic; conditions: 24 h
[11] = tested on: HepG2; assay: relative viability EC50 (midpoint between 100% and the lowest measured viability); higher = less toxic; conditions: 72 h
[12] = tested on: U2OS; assay: as above; conditions: 72 h
[13] = tested on: Calu-3; assay: as above; conditions: 72 h
[14] = tested on: HepG2; assay: cell viability relative to DMSO; higher = less toxic; conditions: 72 h
[15] = tested on: Vero E6; assay: as above; conditions: 72 h
[16] = tested on: Caco-2; assay: as above; conditions: 72 h
[17] = tested on: U2OS; assay: as above; conditions: 72 h
[18] = tested on: Calu-3; assay: as above; conditions: 72 h
[19] = tested on: Vero E6; assay: relative viability EC50 (midpoint between 100% and the lowest measured viability); higher = less toxic; conditions: 72 h
[20] = tested on: Caco-2; assay: as above; conditions: 72 h

COc1ccccc1C1(O)CCN(CCCn2c3ccccc3c3ccccc32)CC1 [NNC-05-2090]
Conditions | SARS-CoV-2 infection rate [%] | cell count [%] | cell viability [%] | morphology score | phospholipidosis EC50 [µM]
[1], 0.1 µM | 98 | – | – | – | –
[1], 0.3 µM | 98 | – | – | – | –
[1], 1 µM | 86 | – | – | – | –
[1], 3 µM | 34 | – | – | – | –
[2], 24 h | – | – | – | – | 1.98
[2], 48 h | – | – | – | – | 3.85
[2], 72 h | – | – | – | – | 4.18
[8], 0.1 µM | – | – | – | 0.12 | –
[8], 0.3 µM | – | – | – | 0.04 | –
[8], 1 µM | – | – | – | 0.29 | –
[8], 3 µM | – | – | – | 0.85 | –
[10], 0.1 µM | – | 98 | – | – | –
[10], 0.3 µM | – | 106 | – | – | –
[10], 1 µM | – | 109 | – | – | –
[10], 3 µM | – | 119 | – | – | –
[14], 1 nM | – | – | 94.9 | – | –
[14], 10 nM | – | – | 99.7 | – | –
[14], 100 nM | – | – | 90.4 | – | –
[14], 1000 nM | – | – | 99.9 | – | –
[14], 10000 nM | – | – | 40.8 | – | –
[15], 1 nM | – | – | 90.9 | – | –
[15], 10 nM | – | – | 97.5 | – | –
[15], 100 nM | – | – | 88.1 | – | –
[15], 1000 nM | – | – | 92.1 | – | –
[15], 10000 nM | – | – | 74.5 | – | –
[16], 1 nM | – | – | 97.4 | – | –
[16], 10 nM | – | – | 91.7 | – | –
[16], 100 nM | – | – | 109 | – | –
[16], 1000 nM | – | – | 83.1 | – | –
[16], 10000 nM | – | – | 68.4 | – | –
[17], 1 nM | – | – | 99.4 | – | –
[17], 10 nM | – | – | 94.1 | – | –
[17], 100 nM | – | – | 102 | – | –
[17], 1000 nM | – | – | 94.6 | – | –
[17], 10000 nM | – | – | 82.9 | – | –
[18], 1 nM | – | – | 94.1 | – | –
[18], 10 nM | – | – | 99.9 | – | –
[18], 100 nM | – | – | 90.7 | – | –
[18], 1000 nM | – | – | 89.1 | – | –
[18], 10000 nM | – | – | 7.5 | – | –

Conditions | drug sensitivity score | relative viability EC50 [µM]
[3] | 3.2 | –
[4] | 1.9 | –
[5] | 3.4 | –
[6] | 0.9 | –
[7] | 7 | –
[11] | – | 3.14
[12] | – | > 10
[13] | – | 2.19

drug-induced phospholipidosis [%], [9]
Conditions | 0.3 µM | 0.833333 µM | 3.33333 µM | 6.66667 µM | 10 µM
24 h | 3.96 | 10.5 | 87.6 | 108 | 101
48 h | 4.69 | 12.2 | 64.2 | 102 | 116
72 h | 5.37 | 9.7 | 49.7 | 106 | 121

C=C1C(=O)O[C@@H]2/C=C(\C)CC/C=C(\C)CC[C@@H]12 [costunolide]
Conditions | SARS-CoV-2 infection rate, [1] [%] | cell count, [10] [%] | cell viability, [14] [%] | cell viability, [15] [%] | cell viability, [16] [%] | cell viability, [17] [%] | cell viability, [18] [%] | morphology score, [8]
1 nM | – | – | 99.7 | 98.6 | 96.5 | 96.3 | 117 | –
10 nM | – | – | 108 | 91.9 | 92.8 | 99.8 | 102 | –
100 nM | – | – | 92.9 | 99.1 | 91.1 | 94.3 | 98.7 | –
0.3 µM | 103 | 104 | – | – | – | – | – | 0.19
1000 nM | – | – | 97.3 | 97.8 | 86.6 | 96.8 | 94.5 | –
3 µM | 104 | 97 | – | – | – | – | – | -0.19
10 µM | 106 | 99 | – | – | – | – | – | -0.21
10000 nM | – | – | 91.5 | 93.4 | 87.1 | 94.7 | 105 | –
30 µM | 66 | 70 | – | – | – | – | – | 0.15

Conditions | drug sensitivity score | relative viability EC50 [µM]
[3] | 0 | –
[4] | 0 | –
[5] | 0.9 | –
[6] | 0 | –
[7] | 0 | –
[11] | – | > 10
[12] | – | > 10
[13] | – | > 10
[19] | – | > 10
[20] | – | > 10

drug-induced phospholipidosis [%], [9]
Conditions | 0.3 µM | 0.833333 µM | 3.33333 µM | 6.66667 µM | 10 µM | 30 µM
24 h | 0.39 | -3.23 | 0.77 | 4.32 | 10.4 | 39.6
48 h | 2.36 | -2.51 | 0.025 | 1.2 | 4.57 | 14.4
72 h | 2.1 | -1.84 | -1.2 | -0.442 | 1.25 | 9.89
